# pIC50: −log10 of the molar value.
# Target: T1, Androgen receptor (Homo sapiens, UniProt P10275)
# T1 sequence (P10275 whole entry): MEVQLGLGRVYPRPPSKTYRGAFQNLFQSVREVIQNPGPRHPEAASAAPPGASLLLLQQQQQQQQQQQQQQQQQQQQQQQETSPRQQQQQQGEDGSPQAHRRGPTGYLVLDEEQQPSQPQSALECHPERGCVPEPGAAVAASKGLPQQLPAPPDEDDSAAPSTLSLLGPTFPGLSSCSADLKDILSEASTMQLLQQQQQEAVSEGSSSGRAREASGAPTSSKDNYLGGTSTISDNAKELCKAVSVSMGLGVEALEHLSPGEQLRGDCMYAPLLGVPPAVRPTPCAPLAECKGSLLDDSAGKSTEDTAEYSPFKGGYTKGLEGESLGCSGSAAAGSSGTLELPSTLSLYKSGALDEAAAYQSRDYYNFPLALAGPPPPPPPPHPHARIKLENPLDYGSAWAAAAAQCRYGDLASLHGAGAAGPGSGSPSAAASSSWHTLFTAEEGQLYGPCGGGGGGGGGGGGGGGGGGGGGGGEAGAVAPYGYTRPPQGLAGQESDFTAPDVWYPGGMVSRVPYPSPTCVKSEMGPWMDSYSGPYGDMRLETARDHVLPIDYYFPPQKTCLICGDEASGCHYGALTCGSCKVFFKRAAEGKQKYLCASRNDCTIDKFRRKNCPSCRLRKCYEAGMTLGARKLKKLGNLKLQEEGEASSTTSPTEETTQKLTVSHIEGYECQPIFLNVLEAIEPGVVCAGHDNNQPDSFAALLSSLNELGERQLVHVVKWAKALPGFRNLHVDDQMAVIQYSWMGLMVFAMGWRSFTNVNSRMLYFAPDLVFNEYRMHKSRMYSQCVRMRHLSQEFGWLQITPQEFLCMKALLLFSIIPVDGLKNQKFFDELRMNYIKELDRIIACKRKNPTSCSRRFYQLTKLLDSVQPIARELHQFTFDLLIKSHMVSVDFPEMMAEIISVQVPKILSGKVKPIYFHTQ
# Assay: Inhibition of androgen dependent human prostate cancer cell […] proliferation
row,Compound,pIC50
1,"CN1C(=O)C2C=CC1c1c2c(O)n(-c2ccc([N+](=O)[O-])c3ccccc23)c1O [(2R,6R)-8-Methyl-4-(4-nitro-naphthalen-1-yl)-4,8-diaza-tricyclo[5.2.2.0*2,6*]undec-10-ene-3,5,9-trione]",5.07
2,"Oc1c2c(c(O)n1-c1ccc(Cl)c(Cl)c1)C1C=CC2C1 [(2R,6S)-4-(3,4-Dichloro-phenyl)-4-aza-tricyclo[5.2.1.0*2,6*]dec-8-ene-3,5-dione]",6.74
3,"Oc1c2c(c(O)n1-c1cccc(C(F)(F)F)c1)C1C=CC2CC1 [(2R,6S)-4-(3-Trifluoromethyl-phenyl)-4-aza-tricyclo[5.2.2.0*2,6*]undec-8-ene-3,5-dione]",9.40
4,"Oc1c2c(c(O)n1-c1cccc(C(F)(F)F)c1)C1C=CC2[C@H]2C[C@@H]12 [(2R,6S,8S,10R)-4-[3-(trifluoromethyl)phenyl]-4-azatetracyclo[5.3.2.0^{2,6}.0^{8,10}]dodec-11-ene-3,5-dione]",6.83
5,"Oc1c2c(c(O)n1-c1cccc(C(F)(F)F)c1)C1CCCC2CC1 [(2S,6R)-4-(3-Trifluoromethyl-phenyl)-4-aza-tricyclo[5.3.2.0*2,6*]dodecane-3,5-dione]",6.75
